The results in this text go back to patent US20250011316A1, “PEROXIREDOXIN 3 INHIBITORS AND METHODS OF USE FOR TREATING CANCER” (Wake Forest University Health Sciences, priority 2022, published 2025).

Series [1] addresses T1, PRX3 (Homo sapiens, UniProt P30048).
T1 construct: endogenous in cells; host or cells: H-MESO malignant mesothelioma cells
T1 sequence (P30048 62-256): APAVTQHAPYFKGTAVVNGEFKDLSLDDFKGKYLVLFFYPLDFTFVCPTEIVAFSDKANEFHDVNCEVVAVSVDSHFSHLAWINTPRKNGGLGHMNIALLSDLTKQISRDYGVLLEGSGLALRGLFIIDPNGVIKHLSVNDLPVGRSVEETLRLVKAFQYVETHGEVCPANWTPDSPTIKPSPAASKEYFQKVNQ
The series can be described thus: Crosslinking study: PRX3 western blot of H-MESO cell lysates. Type of series: cell-based. The note with it: H-MESO cells treated 24 hours; TS at 2.5 or 5 μM; reducing SDS-PAGE, PRX3 western blot (FIG. 3). As to the method: Malignant Mesothelioma (MM) cells (H-MESO cell line) were plated into 6-well plates in complete tissue culture media. Cells were allowed to adhere for 24 hours before being treated with indicated concentrations of thiostrepton (TS), (1) or (5) (DMSO Stocks) for 24 hours. Cell lysates were generated using standard RIPA buffer, protein concentrations were determined using a Bradford Assay and 20 μg of total protein per sample were separated by reducing SDS-Polyacrylamide Gel Electrophoresis. Proteins were transferred to a PVDF membrane, blocked with 5% Bovine Serum Albumin (BSA) for 1 hour and incubated with PRX3 primary antibody overnight at 4° C. in IX Tris Buffered Saline with Tween (TBST). Membranes were washed 3X with IX TBST and incubated with horseradish peroxidase conjugated (HRP) secondary antibody for 1 hour at room temperature. Membranes were washed 3x in IX TBST and HRP signal was developed using Enhanced Chemiluminescence and visualized on a GE digital imager.
On the technique in general: In western blotting, separated proteins are transferred to a membrane and probed.

In series [2] the test system is Enterococcus hirae (ATCC #10541). The series can be described thus: Antimicrobial Activity Assay (MIC / growth inhibition). Type of series: cell-based. The note with it: for MIC: ATCC10541, Enterococcus hirae, analogs tested at 20 μM final concentration. As to the method:
The overnight growth was then diluted into growth media to make a single solution of E. hirae with a final optical density at 600 nm=0.02 AU. A 20 mM stock solution of Thiostrepton in DMSO was made and used to make multiple dilutions of TS in DMSO. Each TS dilution (0.1 mL) was then added to a test tube containing 10 mL of the diluted E. hirae and grown at 37° C. overnight while shaking at 180 rpm. The next morning, each tube was visually inspected to determine if the cells grew. Final concentrations tested were 0.120, 0.090, 0.075, 0.060, 0.045, 0.030, and 0.015 μM TS. […] Three replicates were made on three separate days (n=9). […] For TS analogs, the dilute E. hirae was treated with 20 μM final concentration of each analog (three replicates each). […] DMSO was used as a positive control (complete cell growth) and 20 μM thiostrepton was used as a negative control.

In series [3] the test system is HMESO mesothelioma cells. The series can be described thus: Cell viability study (crystal violet, 48 h). Format: cell-based. The note with it: Homo sapiens, 48 h incubation, read-out: IC50 (Concentration of drug required to kill 50% of cells). Here is the method:
Cell Lines were plated in 96-well plates (Corning, Kennebunk, ME, USA) at a density of 2500 cells per well. The following day, cells were treated with test compounds diluted in complete media followed by incubation for 48 h. Post-incubation cells were washed with PBS (Corning Cellgro, Manassas, VA, USA), fixed with 3.0% formaldehyde (Fisher BioReagents, Fair Lawn, NJ, USA) in PBS, and stained for 30 min with 0.1% crystal violet (Acros Organics, Fair Lawn, NJ, USA) in water. Crystal violet stain was removed, and plates were washed with FEO and allowed to dry. To quantify cell viability, plates were imaged using the Lionheart Plate reader (BioTek Instruments, Winooski, VT, USA) and/or analyzed by absorbance at 540 nm (crystal violet dye dissolved in 100% methanol) using the Synergy HTX plate reader (BioTek Instruments, Winooski, VT, USA). To determine the effective cytotoxic concentration (ICso) of test compounds, the data were plotted using a 4-parameter non-linear regression model using GraphPad Prism7 software (GraphPad Software, San Diego, CA, USA).
Cell viability assay data in HMESO mesothelioma cells treated with compounds (1)—HCl or (5) HCl are summarized in the below Table 2. ICso (Concentration of drug required to kill 50% f cells) is shown in […] concentration

For series [4], the system named is human SK—OV-3 ovarian cancer cells. The series can be described thus: Cellular Activity Assay (cytotoxicity, crystal violet). The note with it: Homo sapiens, SK—OV-3 cells, treated for 48 hr, 0.1-100 μM, crystal violet absorbance at 540 nm. Format: cell-based. An outline of the steps:
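SK-OV-3 cells plated, allowed 24 h recovery, then treated 48 hr with compound at 0.1-100 μM. Live cells were fixed (3.0% formaldehyde), stained with 0.1% crystal violet and read at 540 nm. EC50 was fitted after normalizing to matched-DMSO controls.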

Series [5] addresses T2, purified human PRX3 (Homo sapiens, UniProt P30048).
T2 construct: made in house
T2 sequence (P30048 62-256): T1 sequence (P30048 62-256)
Kind of series: Biochemical PRX3 Inhibition Assay (non-reducible crosslink by SDS PAGE + single adduct by MALDI-TOF MS). The note with it: 100 μM PRX3 with TRX2/thioredoxin reductase/NADPH system and hydrogen peroxide, 1-2 hr at 37° C. An outline of the steps:
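Purified human PRX3 (100 µM) cycled with TRX2, thioredoxin reductase, NADPH regenerating system and H2O2, incubated with compound 1–2 h at 37 °C. Non-reducible crosslink quantified by densitometry of SDS-PAGE (~46 vs ~23 kDa) after DTT; single-adduct fraction from MALDI-TOF MS peak intensities, background-corrected against DMSO.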

Series [6] is described as follows: Solubility Assay (HPLC). The note with it: HEPES/NaCl buffer, aqueous with cosolvent or surfactant or cyclodextrin, kinetic from dmso stock; 20 mM HEPES, 100 mM NaCl, pH 7.5, 18-24 hours at ambient temperature; read-out: Solubility. Format: physicochemical. The gist of the method:
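Compound from 20 mM DMSO stock added to 20 mM HEPES, 100 mM NaCl, pH 7.5, rotated 18-24 h at ambient temperature, then centrifuged 10 min at 20,000×g to remove solids. Supernatant diluted in DMSO and quantified by HPLC peak area against the closest of 200 μM and 20 μM standards, corrected for dilution.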

Setting [7] is: E. hirae, overnight at 37° C., MIC determination, n=9.

Values after ≈ are worked out from the molar mass of the structure shown. Structures can show the parent of a compound that is named as a salt.

Regarding `C=C(NC(=O)c1csc(-c2ccc(N)cc2)n1)C(=O)NC(=C)C(=O)OC` [(5), Methyl 2-(2-(2-(4-aminophenyl)thiazole-4-carboxamido)acrylamido)acrylate], the “Covalent PRX3 crosslinking (PRX3-X-PRX3)” value in series [1] was “Similar, yet less robust”.

As for `C=C(NC(=O)C(=C)NC(=O)c1csc(C2=N[C@@H]3c4csc(n4)[C@H]4NC(=O)c5csc(n5)[C@H]([C@](C)(O)[C@@H](C)O)NC(=O)[C@H]5CSC(=N5)/C(=C/C)NC(=O)[C@H]([C@@H](C)O)NC(=O)c5csc(n5)[C@]3(CC2)NC(=O)[C@H](C)NC(=O)C(=C)NC(=O)[C@H](C)NC(=O)[C@H]([C@@H](C)CC)N[C@@H]2C=Cc3c([C@H](C)O)cc(nc3[C@H]2O)C(=O)O[C@@H]4C)n1)C(N)=O` [TS, Thiostrepton, reference compound], in series [2] (setting [7]), the “TS concentrations at which complete growth was observed” value is less than 0.030 µM and the “TS concentrations at which no growth was observed” value was greater than 0.045 µM. The IC50 in series [3] was determined as 1.01 µM. In addition, the “Covalent PRX3 crosslinking (PRX3-X-PRX3)” value in series [1] was “resulted in covalent PRX3 crosslinking”.

Turning to `C=C(NC(=O)C(=C)NC(=O)c1csc(-c2ccc(N)cc2)n1)C(N)=O` [(1), N-(3-((3-amino-3-oxoprop-1-en-2-yl)amino)-3-oxoprop-1-en-2-yl)-2-(4-aminophenyl)thiazole-4-carboxamide], the “Covalent PRX3 crosslinking (PRX3-X-PRX3)” value in series [1] is on record as “No PRX3 —X —PRX3 crosslinking was observed”.

In the case of `C=C(NC(=O)c1csc(N2CCC(NC(=O)CCCCCN=[N+]=[N-])CC2)n1)C(=O)NC(=C)C(=O)OC` [Compound 19, Methyl 2-(2-(2-(4-(6-azidohexanamido)piperidin-1-yl)thiazole-4-carboxamido)acrylamido)acrylate], the EC50 (as a rule, the concentration giving half of the maximal effect) in series [4] fell in the range of 1 to 10 µM. Besides, the “PRX3 Inhibition (Crosslink + Mono-adduct)” value (“PRX3 Inhibition” for short) in series [5] is given as “+++ (>90%)”. In addition, the solubility (commonly the concentration that dissolves in the medium under given conditions) in series [6] was less than 100 µM. In series [2], the MIC (in general, the least concentration at which growth counts as inhibited) is greater than 20 µM.

In the case of `C=C(NC(=O)c1csc(-c2cccc(C(=O)OC(C)(C)C)c2)n1)C(=O)NC(=C)C(=O)OC` [Compound 14, Tert-butyl 3-(4-((3-((3-methoxy-3-oxoprop-1-en-2-yl)amino)-3-oxoprop-1-en-2-yl)carbamoyl)thiazol-2-yl)benzoate], in series [4], the EC50 lay within 25 to 100 µM. In addition, the “PRX3 Inhibition” value in series [5] was “+++ (>90%)”. For the same molecule, the solubility in series [6] is less than 100 µM. This molecule also displayed an MIC in series [2] greater than 20 µM.

As to `C=C(NC(=O)c1csc(N2CCC(NC(=O)CCCCCNC(=O)OC(C)(C)C)CC2)n1)C(=O)NC(=C)C(=O)OC` [Compound 13, Methyl 2-(2-(2-(4-(6-((tert-butoxycarbonyl)amino)hexanamido)piperidin-1-yl)thiazole-4-carboxamido)acrylamido)acrylate], in series [4] (SK-OV-3, 48 h), the EC50 is 1 to 10 µM. Moreover, in series [5], the “PRX3 Inhibition” value is given as “+++ (>90%)”. Moreover, the solubility in series [6] is 100 to 1000 µM (≈ 59.3 to 593 µg/mL). In series [2], the MIC is greater than 20 µM.

With `C=C(NC(=O)c1csc(C2CCN(C(=O)OC(C)(C)C)CC2)n1)C(=O)NC(=C)C(=O)OC` [Compound 1, Tert-butyl 4-(4-((3-((3-methoxy-3-oxoprop-1-en-2-yl)amino)-3-oxoprop-1-en-2-yl)carbamoyl)thiazol-2-yl)piperidine-1-carboxylate], in series [4], the EC50 lay in the range of 1 to 10 µM. Further, in series [5], the “PRX3 Inhibition” value is on record as “++ (50-90%)”. Besides, in series [6], the solubility was 100 to 1000 µM (≈ 46.5 to 465 µg/mL). In series [2], this molecule showed an MIC greater than 20 µM.

For the molecule `C=C(NC(=O)c1csc(N2CCC(NC(=O)COCCOC)CC2)n1)C(=O)NC(=C)C(=O)OC` [Compound 34, Methyl 2-(2-(2-(4-(2-(2-methoxyethoxy)acetamido)piperidin-1-yl)thiazole-4-carboxamido)acrylamido)acrylate], the EC50 in series [4] is 1 to 10 µM. The “PRX3 Inhibition” value in series [5] is “+++ (>90%)”. Further, the solubility in series [6] was greater than 1000 µM. The molecule further had a minimum inhibitory concentration (MIC) in series [2] greater than 20 µM.

As to `C=C(NC(=O)c1csc(N2CCC(N(C)C(=O)OCC)CC2)n1)C(=O)NC(=C)C(=O)OC` [Compound 21, Methyl 2-(2-(2-(4-((ethoxycarbonyl)(methyl)amino)piperidin-1-yl)thiazole-4-carboxamido)acrylamido)acrylate], the EC50 in series [4] was 1 to 10 µM. In series [5], the “PRX3 Inhibition” value is listed as “+++ (>90%)”. For the same molecule, the solubility in series [6] was less than 100 µM. In series [2], this molecule registered a minimum inhibitory concentration (MIC) greater than 20 µM.

Turning to `C=C(NC(=O)C(=C)NC(=O)c1csc(-c2ccc(N)cc2)n1)C(N)=O` [(1)-HC1, N-(3-((3-amino-3-oxoprop-1-en-2-yl)amino)-3-oxoprop-1-en-2-yl)-2-(4-aminophenyl)thiazole-4-carboxamide hydrochloride], the IC50 in series [3] turned out to be 748 µM.

In the case of `C=C(NC(=O)c1csc(-c2ccc(C(=O)NCCOC)cc2)n1)C(=O)NC(=C)C(=O)OC` [Compound 10, Methyl 2-(2-(2-(4-((2-methoxyethyl)carbamoyl)phenyl)thiazole-4-carboxamido)acrylamido)acrylate], the EC50 in series [4] lay within 1 to 10 µM. Also, the “PRX3 Inhibition” value in series [5] is on record as “+++ (>90%)”. Moreover, the solubility in series [6] was less than 100 µM. In addition, in series [2], the MIC was greater than 20 µM.

In series [4], `C=C(NC(=O)c1csc(-c2ccc(NC(=O)CCCCCN=[N+]=[N-])cc2)n1)C(=O)NC(=C)C(=O)OC` [Compound 25, Methyl 2-(2-(2-(4-(6-azidohexanamido)phenyl)thiazole-4-carboxamido)acrylamido)acrylate] registered an EC50 of 10 to 25 µM. In addition, in series [5], the “PRX3 Inhibition” value is listed as “++ (50-90%)”. The solubility in series [6] is less than 100 µM. In series [2], this molecule displayed an MIC greater than 20 µM.

Turning to `C=C(NC(=O)c1csc(-c2ccc(OCCOC)cc2)n1)C(=O)NC(=C)C(=O)OC` [Compound 24, Methyl 2-(2-(2-(4-(2-methoxyethoxy)phenyl)thiazole-4-carboxamido)acrylamido)acrylate], the EC50 in series [4] lay within 1 to 10 µM. For the same molecule, the “PRX3 Inhibition” value in series [5] is given as “++ (50-90%)”. Besides, the solubility in series [6] is less than 100 µM. This molecule returned an MIC in series [2] greater than 20 µM.
